Read-outs that look alike come from different tables or passages of the source.
Test system: western and northern corn root worm
Format: in vivo, corn rootworm
Settings: for PERCENT OF CONTROL (3-6 damage level) / PERCENT OF CONTROL (4-6 damage level) / PERCENT OF CONTROL (5-6 damage level) / PERCENT PLANTS HAVING 3-6 DAMAGE LEVEL / PERCENT PLANTS HAVING 4-6 DAMAGE LEVEL / PERCENT PLANTS HAVING 5-6 DAMAGE LEVEL: Iowa 1-6 Scale; for Corn root worm damage (Iowa 1-6 scale), means across locations / Corn root worm damage in each Iowa class (Iowa 1-6 scale): class 1 / Corn root worm damage in each Iowa class (Iowa 1-6 scale): class 2 / Corn root worm damage in each Iowa class (Iowa 1-6 scale): class 3 / Corn root worm damage in each Iowa class (Iowa 1-6 scale): class 4 / Corn root worm damage in each Iowa class (Iowa 1-6 scale): class 5 / Corn root worm damage in each Iowa class (Iowa 1-6 scale): class 6: stage VT-R1
Description: Corn seeds of the same hybrid species, with and without the transgenic event, were treated with clothianidin pesticide as follows. A seed treatment formulation was prepared by mixing a measured amount of clothianidin in water as a carrier and applying the formulation for one minute at room temperature to a measured weight of corn seed in a rotostatic seed treater. The respective weights of the pesticide preparation and the corn seed were calculated to provide the desired rate of treatment of pesticide on the seed. The pesticide was mixed into sufficient water to permit efficient distribution of the formulation to all of the seeds in the batch while minimizing loss of treatment formulation due to lack of uptake of the formulation by the seeds. Treated seeds were allowed to sit uncapped for at least four hours before planting.
A field trial was run in accordance with pertinent protocols and in conformance with USDA notification requirements. The purpose of the trial was to determine the efficacy of transgenic event Cry3Bb.11231 in corn seed in combination with corn rootworm seed treatments using clothianidin.
For each growing site that was selected, the plot design included the following:
The following seed treatment combinations were used for each growing area:
All seed treatments with pesticides were carried out as described in Example 1.
For seeds having treatments numbered 3 though 7, the pesticides were applied by the methods described in Example 1. In seed treatment number 8, commercially available Force® 3G was applied to the soil in a 5″ band at the time of sowing. The levels of application are as shown and are within the ranges recommended for standard commercial practice.
Corn seeds to be tested were planted and grown at five different locations across two Midwestern states in the United States corn belt according to the protocol described above.
The determination of damage by corn rootworm was made according to the following protocol. At stage VT-R1, an evaluation of corn rootworm damage was carried out by methods that are well known in the industry, and damage by corn rootworm was reported according to the Iowa 1-6 rating system. In that system, the root systems of 10 corn plants per plot are recovered and scored using the 1-6 rating scale, where: 1=no injury or only a few minor feeding scars, 2=feeding injury evident, but no roots eaten back to 1 ½ inches of the plant, 3=at least one root eaten off to within 1 ½ inches of the plant, but never an entire node of roots destroyed, 4=one node of roots eaten back to within 1 ½ inches of the plant, 5=two nodes (circles) of roots eaten back to within 1 ½ inches of the plant, 6=three nodes (circles) of roots eaten back to within 1 ½ inches of the plant.
The combinations of clothianidin seed treatment with corn seed having a Cry3Bb.11231 transgenic event were tested for possible synergy at three levels of rootworm damage. In the first test, shown in Table 2(a), the percentage of test plants having damage levels of from 3 to 6, on the Iowa 1-6 Scale, were determined for the control and for seeds treated with the pesticide at two levels, and for seeds having the transgenic event, alone and in combination. The following formula was then used to calculate a “synergy threshold”:
(% of control Cry3Bb.11231)*(% of control clothianidin treatment)/100.
This threshold was compared against the percent of control for the treatment combinations (i.e., Cry3Bb.11231 with clothianidin @ 100 gm/100 kg and Cry3Bb.11231 with clothianidin @ 300 gm/100 kg). If the treatment combination percent of control was below the threshold, then it was concluded that there was synergy.

[1] = clothianidin seed treatment @ 100 g/100 kg seed
[2] = clothianidin seed treatment @ 300 g/100 kg seed
[3] = clothianidin seed treatment @ 400 g/100 kg seed

CN/C(=N\[N+](=O)[O-])NCc1cnc(Cl)s1 [Clothianidin, N-[(2-chloro-5-thiazoyl)methyl]-N′-methyl-N″-nitro,[C(E)]-(9Cl)-guanidine]
PERCENT OF CONTROL (3-6 damage level) (clothianidin @ 100 gm/100 kg): 96.6%
PERCENT OF CONTROL (4-6 damage level) (clothianidin @ 100 gm/100 kg): 86.9%
PERCENT OF CONTROL (5-6 damage level) (clothianidin @ 100 gm/100 kg): 39.4%
PERCENT PLANTS HAVING 3-6 DAMAGE LEVEL (clothianidin @ 100 gm/100 kg): 96.6%
PERCENT PLANTS HAVING 4-6 DAMAGE LEVEL (clothianidin @ 100 gm/100 kg): 71.2%
PERCENT PLANTS HAVING 5-6 DAMAGE LEVEL (clothianidin @ 100 gm/100 kg): 15.8%
PERCENT OF CONTROL (3-6 damage level) (clothianidin @ 300 gm/100 kg): 91.5%
PERCENT OF CONTROL (4-6 damage level) (clothianidin @ 300 gm/100 kg): 50.65%
PERCENT OF CONTROL (5-6 damage level) (clothianidin @ 300 gm/100 kg): 23.9%
PERCENT PLANTS HAVING 3-6 DAMAGE LEVEL (clothianidin @ 300 gm/100 kg): 91.5%
PERCENT PLANTS HAVING 4-6 DAMAGE LEVEL (clothianidin @ 300 gm/100 kg): 41.5%
PERCENT PLANTS HAVING 5-6 DAMAGE LEVEL (clothianidin @ 300 gm/100 kg): 9.6%
Corn root worm damage (Iowa 1-6 scale), means across locations [1]: 3.9
Corn root worm damage in each Iowa class (Iowa 1-6 scale): class 1 [1]: 0
Corn root worm damage in each Iowa class (Iowa 1-6 scale): class 2 [1]: 6
Corn root worm damage in each Iowa class (Iowa 1-6 scale): class 3 [1]: 45
Corn root worm damage in each Iowa class (Iowa 1-6 scale): class 4 [1]: 98
Corn root worm damage in each Iowa class (Iowa 1-6 scale): class 5 [1]: 23
Corn root worm damage in each Iowa class (Iowa 1-6 scale): class 6 [1]: 5
Corn root worm damage (Iowa 1-6 scale), means across locations [2]: 3.4
Corn root worm damage in each Iowa class (Iowa 1-6 scale): class 1 [2]: 0
Corn root worm damage in each Iowa class (Iowa 1-6 scale): class 2 [2]: 16
Corn root worm damage in each Iowa class (Iowa 1-6 scale): class 3 [2]: 94
Corn root worm damage in each Iowa class (Iowa 1-6 scale): class 4 [2]: 60
Corn root worm damage in each Iowa class (Iowa 1-6 scale): class 5 [2]: 16
Corn root worm damage in each Iowa class (Iowa 1-6 scale): class 6 [2]: 2
Corn root worm damage (Iowa 1-6 scale), means across locations [3]: 3.0
Corn root worm damage in each Iowa class (Iowa 1-6 scale): class 1 [3]: 1
Corn root worm damage in each Iowa class (Iowa 1-6 scale): class 2 [3]: 34
Corn root worm damage in each Iowa class (Iowa 1-6 scale): class 3 [3]: 113
Corn root worm damage in each Iowa class (Iowa 1-6 scale): class 4 [3]: 37
Corn root worm damage in each Iowa class (Iowa 1-6 scale): class 5 [3]: 1
Corn root worm damage in each Iowa class (Iowa 1-6 scale): class 6 [3]: 0
effectiveness against corn rootworm damage (in words) (seed treatment alone, all levels tested (100, 300, 400 gm/100 kg)): effective against corn rootworm damage at all levels tested
